A short description of series [1]: logP determination by HPLC on reverse-phase column (C 18), acidic range pH 2.3. Conditions: for chromatographic logP: reverse-phase HPLC column (C 18). The format is physicochemical. The method, then: The logP values given in Table 1 were determined with EEC Directive 79/831 Annex V.A8 by HPLC (High Performance Liquid Chromatography) on a reverse-phase column (C 18). Temperature: 43° C. Mobile phases for the determination in the acidic range (pH 2.3): 0.1% aqueous phosphoric acid, acetonitrile; linear gradient from 10% acetonitrile to 90% acetonitrile. Calibration was carried out using unbranched alkan-2-ones (having 3 to 16 carbon atoms) with known logP values (determination of the logP values by the retention times using linear interpolation between two successive alkanones).

Another series relates to Puccinia recondita. Description: Puccinia test (wheat)/protective. The class given is in vivo. Particulars: 240 h, wheat plants, protective, application rate 500 g/ha, evaluation 10 days after inoculation, read-out: Efficacy in %. Here is the method:
To produce a suitable preparation of active compound, 1 part by weight of active compound is mixed with the stated amounts of solvent and emulsifier, and the concentrate is diluted with water to the desired concentration.
To test for protective activity, young plants are inoculated with a spore suspension of Puccinia recondita in a 0.1% strength aqueous agar solution. After the spray coating has dried on, the plants are sprayed with the preparation of active compound at the stated application rate. The plants remain in an incubation cabin at 20° C. and 100% relative atmospheric humidity for 24 hours.
The plants are then placed in a greenhouse at a temperature of about 20° C. and a relative atmospheric humidity of 80% to promote the development of rust pustules.
Evaluation is carried out 10 days after the inoculation. 0% means an efficacy which corresponds to that of the control, whereas an efficacy of 100% means that no infection is observed.

The next series relates to Botrytis cinerea. Description: Botrytis test (bean)/protective. The format is in vivo. Conditions: 48 h, bean plants, protective, application rate 500 g/ha, evaluation 2 days after inoculation, read-out: Efficacy in %. Here is the method: To produce a suitable preparation of active compound, 1 part by weight of active compound is mixed with the stated amounts of solvents and emulsifier, and the concentrate is diluted with water to the desired concentration.
To test for protective activity, young plants are sprayed with the preparation of active compound at the stated application rate. After the spray coating has dried on, 2 small pieces of agar colonized by Botrytis cinerea are placed onto each leaf. The inoculated plants are placed in a dark chamber at about 20° C. and 100% relative atmospheric humidity.
2 days after the inoculation, the size of the infected areas on the leaves is evaluated. 0% means an efficacy which corresponds to that of the control, whereas an efficacy of 100% means that no infection is observed.

Setting [2] is: HPLC, C 18 reverse-phase, 43° C.

From US7728019B2, “Biphenylcarboxamides” (priority 2002, dated 2010) come the findings set out here.

Turning to `C#CCO/N=C(\C)c1ccc(-c2ccccc2NC(=O)c2cn(C)nc2C)cc1` [Compound 78], the “logP (pH 2.3)” value in series [1] (setting [2]) came to 2.75.

As to `C=CCO/N=C(/C)c1ccc(-c2ccccc2NC(=O)C2=C(C)OCCS2)cc1` [Compound 39], the “logP (pH 2.3)” value in series [1] (setting [2]) was 4.38.

Take `CC(=O)c1ccc(-c2ccccc2NC(=O)c2cccnc2Cl)cc1` [VIII-1, N-(4′-acetyl-biphenyl-2-yl)-2-chloronicotinamide]: in series [1], the chromatographic logP (usually lipophilicity estimated from chromatographic retention) came out at 2.12.

As for `C#CCO/N=C(\C)c1ccc(-c2ccccc2NC(=O)C2=C(C)OCCS2)cc1` [Compound 74], the “logP (pH 2.3)” value in series [1] (setting [2]) is 3.81.

On to `C#CCO/N=C(\C)c1ccc(-c2ccccc2NC(=O)c2sc(C)nc2C(F)(F)F)cc1` [Compound 67], for which, in series [1] (setting [2]), the “logP (pH 2.3)” value was found to be 3.72.

On to `C#CCO/N=C(\C)c1ccc(-c2ccccc2NC(=O)c2ccccc2C(F)(F)F)cc1` [Compound 73], for which, in series [1] (setting [2]), the “logP (pH 2.3)” value came out at 3.83.

For `C=CC(C)O/N=C(/C)c1ccc(-c2ccccc2NC(=O)c2ccoc2C)cc1` (stereo not shown) [Compound 47], the “logP (pH 2.3)” value in series [1] (setting [2]) is on record as 4.52.

Take `C=C(C)CO/N=C(/C)c1ccc(-c2ccccc2NC(=O)c2c(C)nn(C)c2F)cc1` [Compound 36]: the “logP (pH 2.3)” value in series [1] (setting [2]) is on record as 4.18.

Turning to `C=CC(C)O/N=C(/C)c1ccc(-c2ccccc2NC(=O)c2cn(C)nc2C(F)(F)F)cc1` (stereo not shown) [Compound 46], the “logP (pH 2.3)” value in series [1] (setting [2]) was found to be 4.15.

Consider `C=C(C)CO/N=C(/C)c1ccc(-c2ccccc2NC(=O)c2ccoc2C)cc1` [Compound 51], for which the “logP (pH 2.3)” value in series [1] (setting [2]) is 4.51.

Take `C=CCO/N=C(\C)c1ccc(-c2ccccc2NC(=O)c2c(C)nn(C)c2F)cc1` [Compound 17, N-(4′-{1-(allyloxyimino)-ethyl}-biphenyl-2-yl)-5-fluoro-1,3-dimethyl-1H-pyrazole-4-carboxamide]: the chromatographic logP in series [1] was 3.8.

Regarding `C=CC(C)O/N=C(/C)c1ccc(-c2ccccc2NC(=O)c2ccccc2C(F)(F)F)cc1` (stereo not shown) [Compound 59], the “logP (pH 2.3)” value in series [1] (setting [2]) stood at 4.65.

For `C=C(C)CO/N=C(/C)c1ccc(-c2ccccc2NC(=O)c2ccccc2C(F)(F)F)cc1` [Compound 58], the “logP (pH 2.3)” value in series [1] (setting [2]) is 4.64.

Take `C#CCO/N=C(\C)c1ccc(-c2ccccc2NC(=O)c2cn(C)nc2C(F)(F)F)cc1` [Compound 70]: the “logP (pH 2.3)” value in series [1] (setting [2]) is 3.36.

On to `C=C(C)CO/N=C(/C)c1ccc(-c2ccccc2NC(=O)c2cn(C)nc2C(F)(F)F)cc1` [Compound 48], for which the “logP (pH 2.3)” value in series [1] (setting [2]) was 4.14.

In turn, `C/C(=N\OCC=C(Cl)Cl)c1ccc(-c2ccccc2NC(=O)c2cn(C)nc2C)cc1` [Compound 54, N-(4′-{1-[3,3-dichloroallyloxyimino]ethyl}biphenyl-2-yl)-1,3-dimethyl-1H-pyrazole-4-carboxamide] had a chromatographic logP in series [1] of 3.97.

With `C=CC(C)O/N=C(/C)c1ccc(-c2ccccc2NC(=O)c2cccnc2Cl)cc1` (stereo not shown) [Compound 42], in series [1] (setting [2]), the “logP (pH 2.3)” value was found to be 2.89.

Compound `C/C(=N/OCC=C(Cl)Cl)c1ccc(-c2ccccc2NC(=O)c2cccnc2Cl)cc1` [Compound 63, 2-chloro-N-{4′-[1-(3,3-dichloroallyloxyimino)ethyl]-biphenyl-2-yl}nicotinamide] yielded a chromatographic logP in series [1] of 4.43.

As for `C=C(C)CO/N=C(/C)c1ccc(-c2ccccc2NC(=O)c2cn(C)nc2C)cc1` [Compound 52], the “logP (pH 2.3)” value in series [1] (setting [2]) amounted to 3.52.

For `C=CCO/N=C(/C)c1ccc(-c2ccccc2NC(=O)c2ccoc2C)cc1` [Compound 38], the “logP (pH 2.3)” value in series [1] (setting [2]) was 4.14.

For the compound `C#CCO/N=C(\C)c1ccc(-c2ccccc2NC(=O)c2cn(C)cc2C(F)(F)F)cc1` [Compound 75], the “logP (pH 2.3)” value in series [1] (setting [2]) amounted to 3.6.

On to `C#CCO/N=C(/C)c1ccc(-c2ccccc2NC(=O)c2cn(C)nc2C(F)F)cc1` [Compound 72], for which the chromatographic logP in series [1] (setting [2]) amounted to 3.14. In addition, in the series on Puccinia recondita, the pest or weed control at 500 g/ha was found to be 100%.

On to `C#CCO/N=C(\C)c1ccc(-c2ccccc2NC(=O)c2ccccc2I)cc1` [Compound 79], for which the “logP (pH 2.3)” value in series [1] (setting [2]) came to 3.81.

Consider `C/C(=N/OCC=C(Cl)Cl)c1ccc(-c2ccccc2NC(=O)c2sc(C)nc2C(F)(F)F)cc1` [Compound 62], for which the “logP (pH 2.3)” value in series [1] (setting [2]) came to 3.81.

As to `C#CCO/N=C(\C)c1ccc(-c2ccccc2NC(=O)c2ccccc2Cl)cc1` [Compound 81], the “logP (pH 2.3)” value in series [1] (setting [2]) was found to be 3.73.

For the compound `C=CC(C)O/N=C(/C)c1ccc(-c2ccccc2NC(=O)c2cn(C)cc2C(F)(F)F)cc1` (stereo not shown) [Compound 57], the “logP (pH 2.3)” value in series [1] (setting [2]) is 4.41.

With `C#CCO/N=C(\C)c1ccc(-c2ccccc2NC(=O)c2cccnc2Cl)cc1` [Compound 68], in series [1] (setting [2]), the “logP (pH 2.3)” value was found to be 3.16.

As for `CC#CCO/N=C(/C)c1ccc(-c2ccccc2NC(=O)c2ccoc2C)cc1` [Compound 50], in series [1] (setting [2]), the “logP (pH 2.3)” value worked out at 3.95.

As for `C#CCO/N=C(\C)c1ccc(-c2ccccc2NC(=O)c2ccoc2C)cc1` [Compound 77], in series [1] (setting [2]), the “logP (pH 2.3)” value was determined as 3.59.

Take `C#CCO/N=C(\C)c1ccc(-c2ccccc2NC(=O)c2c(C)nn(C)c2F)cc1` [Compound 71]: the “logP (pH 2.3)” value in series [1] (setting [2]) turned out to be 3.27.

Consider `C#CCO/N=C/c1ccc(-c2ccccc2NC(=O)c2cccnc2Cl)cc1` [Compound 82], for which the “logP (pH 2.3)” value in series [1] (setting [2]) turned out to be 2.92.

Turning to `O=C(Nc1ccccc1-c1ccc(/C=N\OCC2CC2)cc1)c1cccnc1Cl` [Compound 3], in series [1] (setting [2]), the chromatographic logP came out at 3.57. For the same compound, the pest or weed control at 500 g/ha with Botrytis cinerea was 95%.

For the compound `C=C(C)CO/N=C(/C)c1ccc(-c2ccccc2NC(=O)c2sc(C)nc2C(F)(F)F)cc1` [Compound 44], in series [1] (setting [2]), the “logP (pH 2.3)” value amounted to 3.49.

For `C=C(C)CO/N=C(/C)c1ccc(-c2ccccc2NC(=O)c2cccnc2Cl)cc1` [Compound 60], in series [1] (setting [2]), the “logP (pH 2.3)” value is on record as 3.95.

Consider `CC#CCO/N=C(/C)c1ccc(-c2ccccc2NC(=O)c2cn(C)nc2C)cc1` [Compound 55], for which, in series [1] (setting [2]), the chromatographic logP came out at 3.06. Further, in the series on Puccinia recondita, the pest or weed control at 500 g/ha stood at 100%.

In turn, `CC(=O)c1ccc(-c2ccccc2N)cc1` [XIV-1, 1-(2′-aminobiphenyl-4-yl)ethanone] returned a chromatographic logP in series [1] of 1.8.

For the compound `CC#CCO/N=C(/C)c1ccc(-c2ccccc2NC(=O)c2cn(C)nc2C(F)(F)F)cc1` [Compound 40], the chromatographic logP in series [1] (setting [2]) came to 3.67. For the same compound, the pest or weed control at 500 g/ha in the series on Puccinia recondita came out at 100%.

`C#CCO/N=C/c1ccc(-c2ccccc2NC(=O)c2sc(C)nc2C(F)(F)F)cc1` [Compound 83]: the “logP (pH 2.3)” value in series [1] (setting [2]) turned out to be 3.48.

Take `CC#CCO/N=C(/C)c1ccc(-c2ccccc2NC(=O)c2cccnc2Cl)cc1` [Compound 41]: the “logP (pH 2.3)” value in series [1] (setting [2]) is given as 3.48.

In the case of `C/C(=N/OCC=C(Cl)Cl)c1ccc(-c2ccccc2NC(=O)c2ccoc2C)cc1` [Compound 61], the “logP (pH 2.3)” value in series [1] (setting [2]) came to 4.98.

Consider `C#CCO/N=C(/C)c1ccc(-c2ccccc2NC(=O)c2sc(C)nc2C(F)F)cc1` [Compound 69], for which, in series [1] (setting [2]), the chromatographic logP worked out at 3.45. Besides, the pest or weed control at 500 g/ha in the series on Puccinia recondita turned out to be 100%.

For the compound `CC#CCO/N=C(/C)c1ccc(-c2ccccc2NC(=O)c2c(C)nn(C)c2F)cc1` [Compound 37], the “logP (pH 2.3)” value in series [1] (setting [2]) is 3.63.

As to `C=CC(C)O/N=C(/C)c1ccc(-c2ccccc2NC(=O)c2cn(C)nc2C)cc1` (stereo not shown) [Compound 53], the “logP (pH 2.3)” value in series [1] (setting [2]) was determined as 3.53.

As for `C#CCO/N=C(\C)c1ccc(-c2ccccc2NC(=O)c2ccccc2Br)cc1` [Compound 80], the “logP (pH 2.3)” value in series [1] (setting [2]) turned out to be 3.74.
